# How the values were obtained:
# [1] = 4 mg of pitavastatin; cited from earlier work
# [2] = Randomized open-label phase 4 trial of pitavastatin 4 mg/day versus 1 mg/day in Japanese patients with stable coronary artery disease; type: in vivo, human
# Method: This study was a prospective, multicenter, randomized, open-label, blinded-endpoint, physician-initiated phase 4 trial designed to investigate whether high-dose statin therapy could reduce CV events in patients with stable CAD as compared with low-dose statin therapy. We hypothesized that aggressive lipid lowering treatment with pitavastatin 4 mg/day would reduce the incidence of the composite endpoint comprised of CV death, non-fatal myocardial infarction (MI), non-fatal ischemic stroke, and unstable angina requiring emergency hospitalization. The control group received pitavastatin 1 mg/day.
# Men and women aged 20 to 80 years with clinically evident stable CAD and elevated LDL-C were eligible for this study. CAD was defined as 1) previous ACS, such as acute myocardial infarction or unstable angina; 2) a previous coronary revascularization procedure (PCI or coronary artery bypass grafting (“CABG”)); or 3) atherosclerotic CAD detected by coronary artery angiography with at least 75% stenosis in major epicardial coronary arteries (American Heart Association classification). (30) Patients with elevated LDL-C at entry were defined as (1) patients not receiving chronic lipid-lowering therapy with LDL-C≥140 mg/dL, (2) patients with LDL-C≥100 mg/dL and considered by the attending physician to need lipid-lowering therapy, or (3) patients being treated with lipid-lowering therapy.
# Exclusion criteria included (1) any planned coronary revascularization procedure, (2) active malignancy, (3) contraindication for pitavastatin (hypersensitivity to pitavastatin, severe liver disease or hepatic dysfunction, concurrent cyclosporine use, or suspected or confirmed pregnancy or current breastfeeding), (4) severe congestive heart failure (ejection fraction<30% or NYHA class≥3), (5) current hemodialysis, (6) familial hypercholesterolemia, (7) current participation in another clinical trial, (8) current use of any prohibited drug (lipid-lowering drug other than pitavastatin) that could not be discontinued during the study, and (9) any other finding that would make the patient unsuitable for this study in the opinion of the investigators.
# Participants were recruited at 733 hospitals in Japan. During screening visits, informed consent and baseline medical history were obtained, and a clinical examination and laboratory testing were performed. Blood samples were collected to determine fasting lipid levels and the patient's standard clinical profile. After discontinuation of all previous lipid-lowering therapies, all eligible patients started receiving treatment with pitavastatin 1 mg/day on an open-label basis for at least 1 month (run-in period). At the end of the run-in period (week 0), those patients with LDL-C levels below 120 mg/dL, measured by a central laboratory using Friedwald's formula, were eligible for randomization. Patients with prior ACS or coronary revascularization could be randomized beyond 3 months after the index event. Randomization was not allowed for patients with poor adherence (less than 50%) for the study drug during the run-in period or for patients with the primary endpoint events during the run-in period.
# Patients were randomized in a 1:1 ratio to either pitavastatin 4 mg or pitavastatin 1 mg once daily. Randomized treatment assignment was stratified by 5 factors: 1) institution, 2) prior statin use, 3) age (<65 or ≥65), 4) diabetes, and 5) sex. Patients were to be followed for 3 years, and study visits were scheduled at 6 months for the first visit and every year thereafter. At each visit, information on vital signs, clinical endpoints, adverse events, and concurrent medication was collected. In addition, physical examinations and electrocardiograms were performed and blood specimens were collected at 6 months and every 12 months thereafter for lipid and other laboratory tests. […]
compound,measurement,setting,value
O=C(O)C[C@H](O)C[C@H](O)/C=C/c1c(C2CC2)nc2ccccc2c1-c1ccc(F)cc1 [pitavastatin],reduction of LDL-C from baseline,[1],42.9%
same,"incidence rates of individual CV events: death from any cause, myocardial infarction, and coronary revascularization results","[2]; 1 mg and 4 mg pitavastatin groups, FIG. 8",positive
same,LDL-C,"[2]; patients converted from 1 mg dose to 4 mg dose of pitavastatin, stable CAD, FIG. 2",statistically significant reduction
same,HDL-C,"[2]; patients converted from 1 mg dose to 4 mg dose of pitavastatin, stable CAD, FIG. 3",numerically superior increase
same,TG,"[2]; patients converted from 1 mg dose to 4 mg dose of pitavastatin, stable CAD, FIG. 4",statistically significant reduction
same,hs-CGP,"[2]; patients converted from 1 mg dose to 4 mg dose of pitavastatin, stable CAD, FIG. 5",statistically significant reduction
same,"primary clinical endpoint (composite of CV death, MI, ischemic stroke and UA)","[2]; patients converted from 1 mg dose to 4 mg dose of pitavastatin, stable CAD, FIG. 6",statistically significant reduction
same,secondary clinical endpoint (primary endpoint+coronary revascularization),"[2]; patients converted from 1 mg dose to 4 mg dose of pitavastatin, stable CAD, FIG. 7",statistically significant reduction
same,effect of LDL-C status (≥95 mg/dL or <95 mg/dL) on primary endpoint incidence rates,"[2]; subgroup analysis, 1 mg versus 4 mg pitavastatin, FIG. 9",did not affect the results

# Reference: US20200138802A1, “Aggressive Lipid Lowering Therapy in Coronary Artery Disease” (Kowa Company, Ltd., priority 2018, published 2020)
